Patent US20260041093A1, “Ionic Derivatives Of Aromatic Carboxylic Acid For Use As Plant Stimulants, Method For Stimulating Plants And Use Of These Derivatives For Manufacturing Compositions For Stimulating Plants” (FUNDACJA UNIWERSYTETU IM. ADAMA MICKIEWICZA W POZNANIU, priority 2022, published 2026)
Read-outs that look alike come from different tables or passages of the source.

How the values were obtained:
bell pepper = test: Bell pepper seedlings in pots sprayed: height, fresh and dry weight (Example 5); format: in vivo; conditions: 3-chlorosalicylate 80 mg/L, benzothiadiazole salt 30 mg/L
Experimental: Pepper seedlings were planted into pots with peat substrate (P9 pots having 0,5 l). Pots were placed in greenhouse and cultivated for a 1 month. […] Plants treated with water only were the untreated control. During the course of the experiment, the height of the plants was measured, and at the end the fresh and dry weight of the aboveground part was evaluated.

tomato = test: Greenhouse tomato sprayed three times: yield, health-promoting substances, leaf chlorophyll (Example 2); format: in vivo; conditions: 80 mg/L, benzothiadiazole salt 30 mg/L, chitosan lactate 50 mg/L
Experimental: Biostimulant properties were evaluated for the following stimulants: […] The evaluation of stimulant properties included the influence of tested substances on tomato yield, content of health-promoting substances in yield and chlorophyll content in tomato leaves. […] The untreated control plants were sprayed with distilled water. During the experiment, total yield weight, commercial and non-commercial yield and average commercial fruit weight, number of fruits per plant and average fruit weight per plant were evaluated. […] Chlorophyll was measured before each treatment and one day after each treatment using Minolta's SPAD-502 chlorophyll meter.

broccoli = test: Broccoli seedlings in pots sprayed: height, fresh and dry weight (Example 4); format: in vivo
Experimental: Broccoli seedling were planted into pots with peat substrate (P9 pots having 0.5 l). Pots were placed in greenhouse and cultivated for a 1 month. […] 2-fluoroethyl(trimethyl)ammonium benzo[1,2,3]thiadiazole-7-carboxylate; 3. 2-bromoethyl(trimethyl)ammonium benzo[1,2,3]thiadiazole-7-carboxylate; 4. 2-chloroethyl(trimethyl)ammonium benzo[1,2,3]thiadiazole-7-carboxylate; 5. 2-iodoethyl(trimethyl)ammonium benzo[1,2,3]thiadiazole-7-carboxylate used at a concentration of 30 mg/L and 6. 2-hydroxyethyl(trimethyl)ammonium 3-chlorosalicylate (tested also at a concentration of 50 mg/L); 7. 3-chlorosalicylate 2-fluoroethyl(trimethyl)ammonium; 8. 3-chlorosalicylate 2-bromoethyl(trimethyl)ammonium; 9. 3-chlorosalicylate 2-chloroethyl(trimethyl)ammonium; 10. 3-chlorosalicylate 2-iodoethyl(trimethyl)ammonium used at a concentration of 80 mg/L. Plants were sprayed with tested substances three times at 10-day intervals. Plants treated with water only were the untreated control. During the course of the experiment, the height of the plants was measured, and at the end the fresh and dry weight of the aboveground part was evaluated. The experiment was conducted in 4 repetitions with 5 plants in each (a total of 20 plants per each combination).

tulip = test: Tulip bulbs in peat watered with working solution: height, stem diameter, weights, root length, flowering, vigor (Example 1); format: in vivo; conditions: 80 mg/L, benzothiadiazole salt 30 mg/L
Experimental: Control plants were watered with distilled water. During the conducted experiment, plant height was measured before each treatment. Flowering length and plant vigor were also studied. After 20 days from the end of the last treatment, the fresh and dry weight of aboveground parts and roots, and root length were assessed.

winter rapeseed = conditions: for more aboveground dry matter compared to control: last harvest date, fully ripe
Description: The experiment was established using the long strip method in four repetitions. The dimensions of the plots at establishment were 96 m^2 gross, while the harvestable area was 23.25 m^2 net.
In the experiment, uniform NPK fertilization was applied, using both bulk and liquid fertilizers.
The following facilities were included in the experiment: • 1. control, no stimulant application, standard fungicide protection • 2. stimulant applied at stage 31-32 according to the BBCH development scale, standard fungicide protection • 3. stimulant applied at stage 53-55 according to the BBCH development scale, no fungicide protection

[1] = 3-chlorosalicylate 80 mg/L, benzothiadiazole salt 30 mg/L
[2] = Table 2, 20 days after last treatment
[3] = Table 3 (title: tulip bulbs / root system)
[4] = BBCH 32, standard fungicide protection, 80 mg/L, benzothiadiazole salt 25 mg/L
[5] = BBCH 32, stimulant only, 80 mg/L, benzothiadiazole salt 25 mg/L
[6] = BBCH 55, standard fungicide protection, 80 mg/L, benzothiadiazole salt 25 mg/L
[7] = BBCH 55, without fungicide, 80 mg/L, benzothiadiazole salt 25 mg/L
[8] = first sampling date, stimulant at BBCH 31-32, no fungicide yet, 80 mg/L, benzothiadiazole salt 25 mg/L
[9] = second date, regardless of cultivation technology, 80 mg/L, benzothiadiazole salt 25 mg/L

C[N+](C)(C)CCO.O=C([O-])c1cccc(Cl)c1O [choline 3-chlorosalicylate]
Average dry mass (bell pepper): 12.2 b g
Average fresh mass (bell pepper): 85.7 b g
Average plant height, initial height, before first treatment (bell pepper): 41.5 a mm
Average plant height, second treatment (bell pepper): 161.8 c mm
Average plant height, third treatment (bell pepper): 221.5 b mm
Plant height increase (bell pepper): 180.0 b mm
Chlorophyll content (SPAD), a day after treatment #1 (tomato): 61.4 b
Chlorophyll content (SPAD), a day after treatment #2 (tomato): 60.3 b
Chlorophyll content (SPAD), a day after treatment #3 (tomato): 62.5 b
Chlorophyll content (SPAD), Treatment #1 (tomato; before treatment #1): 50.2 a
Chlorophyll content (SPAD), Treatment #2 (tomato; before treatment #2): 49.4 a
Chlorophyll content (SPAD), Treatment #3 (tomato; before treatment #3): 50.9 a
Average fruit weight per plant (tomato; spray 3x): 154.23 b g
Average weight of marketable fruit (tomato; spray 3x): 26.25 b kg/m^2
Commercial yield (tomato; spray 3x): 18.4 b kg/m^2
Number of fruits per plant (tomato; spray 3x): 4.30 b
Total yield (tomato; spray 3x): 19.13 b kg/m^2
Calcium (tomato; tomato fruits): 97.2 a mg/kg
Lycopene (tomato; tomato fruits): 36.4 b mg/kg
Magnesium (tomato; tomato fruits): 104.5 b mg/kg
Vit. C (tomato; tomato fruits): 191.5 c mg/kg
Vit. E (tomato; tomato fruits): 25.6 b mg/kg
°Brix (sugar content of the liquid expressed in degree of Brix) (tomato; tomato fruits): 5.91 b g
Average dry mass (broccoli; 50 mg/L): 0.6 b g
Average fresh mass (broccoli; 50 mg/L): 6.8 b g
Average plant height, initial height, before first treatment (broccoli; 50 mg/L): 37.6 b mm
Average plant height, second treatment (broccoli; 50 mg/L): 146.4 a mm
Average plant height, third treatment (broccoli; 50 mg/L): 178.5 a mm
Plant height increase (broccoli; 50 mg/L): 140.9 a mm
Average dry mass (broccoli; [1]): 0.6 b g
Average fresh mass (broccoli; [1]): 6.7 b g
Average plant height, initial height, before first treatment (broccoli; [1]): 36.5 a mm
Average plant height, second treatment (broccoli; [1]): 146.0 a mm
Average plant height, third treatment (broccoli; [1]): 179.5 a mm
Plant height increase (broccoli; [1]): 143.0 a mm
Average stem diameter at the end of the experiment 20 days after the 4th treatment (tulip): 8.1 b mm
Flowering length (tulip): 23 days
Root length (tulip): 84.3 b mm
Vigor [on a scale from 1 to 5] (tulip; 1 is a laying plant, 5 is a stiff plant): 4.8 b
Average dry weight of the above-ground part (tulip; [2]): 41.8 b g
Average fresh weight of the above-ground part (tulip; [2]): 443.8 b g
Average dry weight of the above-ground part (tulip; [3]): 5.6 b g
Average fresh weight of the above-ground part (tulip; [3]): 59.5 b g
Average plant height, initial height, first treatment (tulip; before 1st watering): 45.7 a mm
Average plant height, second treatment (tulip; before 2nd watering): 130.5 b mm
Average plant height, third treatment (tulip; before 3rd watering): 257.4 b mm
Average plant height, fourth treatment (tulip; before 4th watering): 369.1 b mm
Average plant height, 20 days after the 4th treatment (tulip; end of experiment): 510.9 b mm
increase in calcium uptake (winter rapeseed; [4]): 5%
increase in magnesium uptake (winter rapeseed; [4]): 4%
increase in nitrogen uptake (winter rapeseed; [4]): 6%
increase in phosphorus uptake (winter rapeseed; [4]): 7%
increase in potassium uptake (winter rapeseed; [4]): 6%
increase in calcium uptake (winter rapeseed; [5]): 8%
increase in magnesium uptake (winter rapeseed; [5]): 12%
increase in nitrogen uptake (winter rapeseed; [5]): 9%
increase in phosphorus uptake (winter rapeseed; [5]): 7%
increase in potassium uptake (winter rapeseed; [5]): 8%
higher fat content (winter rapeseed; BBCH 32, with fungicide, 80 mg/L, benzothiadiazole salt 25 mg/L): 6%
higher fat content (winter rapeseed; BBCH 32, without fungicide, 80 mg/L, benzothiadiazole salt 25 mg/L): 8%
increase in calcium uptake (winter rapeseed; [6]): 9%
increase in fat content (winter rapeseed; [6]): 6%
increase in magnesium uptake (winter rapeseed; [6]): 10%
increase in nitrogen uptake (winter rapeseed; [6]): 11%
increase in phosphorus uptake (winter rapeseed; [6]): 10%
increase in potassium uptake (winter rapeseed; [6]): 8%
increase in calcium uptake (winter rapeseed; [7]): 10%
increase in fat content (winter rapeseed; [7]): 5%
increase in magnesium uptake (winter rapeseed; [7]): 12%
increase in nitrogen uptake (winter rapeseed; [7]): 11%
increase in phosphorus uptake (winter rapeseed; [7]): 10%
increase in potassium uptake (winter rapeseed; [7]): 7%
seed yields higher compared to control (winter rapeseed; both fungicide and stimulant treatments, 80 mg/L, benzothiadiazole salt 25 mg/L): 20%
chlorophyll content, differences between the tested objects (winter rapeseed; first measurement date): no differences were observed
more biomass (dry weight) compared to control (winter rapeseed; [8]): 34%
more biomass (fresh weight) compared to control (winter rapeseed; [8]): 36%
more aboveground dry matter compared to control (winter rapeseed; only the stimulant, 80 mg/L, benzothiadiazole salt 25 mg/L): 42%
more aboveground dry matter compared to control (winter rapeseed; with fungicide protection, 80 mg/L, benzothiadiazole salt 25 mg/L): 38%
more dry weight compared to control, on average (winter rapeseed; [9]): 32%
more fresh weight compared to control, on average (winter rapeseed; [9]): 28%
weight of one thousand seeds higher compared to control (winter rapeseed; tested combinations, 80 mg/L, benzothiadiazole salt 25 mg/L): 10%
more chlorophyll in the leaves (SPAD) compared to control (winter rapeseed; with a fungicide, printed 'first date' (of second and third measurement dates), 80 mg/L, benzothiadiazole salt 25 mg/L): 5%
more chlorophyll in the leaves (SPAD) compared to control (winter rapeseed; with a fungicide, printed 'second date', 80 mg/L, benzothiadiazole salt 25 mg/L): 7%
more chlorophyll in the leaves (SPAD) compared to control (winter rapeseed; without a fungicide, printed 'first date', 80 mg/L, benzothiadiazole salt 25 mg/L): 6%
more chlorophyll in the leaves (SPAD) compared to control (winter rapeseed; without a fungicide, printed 'second date', 80 mg/L, benzothiadiazole salt 25 mg/L): 5%
seed yields higher compared to control (winter rapeseed; without fungicide protection, stimulant at BBCH 31-32, 80 mg/L, benzothiadiazole salt 25 mg/L): 10%
